The source of these data is PMC12332157, “A preclinical study on the influence of linkers in [^68Ga]Ga-NOTA-X-RM26 radiotracers for PET imaging of GRPR expression” (EJNMMI Research, 2025).

Data set [1] in a line: Biodistribution in BALB/c nu/nu mice bearing PC-3 xenografts. Type of data set: in vivo. The following applies: female, BALB/c nu/nu, mouse, iv, total radioactivity. On the procedure: Female BALB/c nu/nu mice of 18–22 g weight were used in the study. All procedures with animals were conducted in accordance with the EU Directive 2010/63/EU for animal experiments and Swedish national legislation concerning the protection of laboratory animals. The experiments were approved by the ethics committee for animal research in Uppsala (Sweden) with permit number 5.8.18–00473/2021. Animals were housed in individually ventilated cages, under a 12-h light/dark cycle with free access to food and water.
For tumor inoculation, 8·10^6 PC-3 cells in 100 µL PBS were injected subcutaneously into the right hind leg of mice. Mouse weight and tumor size were measured every 2–3 days, and tumor volume was estimated by ellipsoid approximation. A predefined humane endpoint of the experiment was either a 15% weight loss or a tumor volume of 1000 mm^3, neither of which was reached.
Four weeks after tumor cell implantation, mice were randomized and divided into 6 groups (4 animals / group): 3 of them received treatment with ^68Ga-radiolabeled peptides, while the other 3 received the same peptides in addition to 5 nmol of non-labeled NOTA-PEG2-RM26 peptide for GRPR-blocking. Peptides were injected intravenously via the tail veins at a dose of 50 pmol (700 kBq radioactivity dose).
At 2 h post injection, mice were sacrificed by overdose of Ketamine/Xylazine anesthesia, and blood was collected by heart puncture. Then, liver, spleen, lungs, pancreas, kidneys, small intestine, stomach, tail, femur bones, tumor and muscle from the opposite legs were collected, weighed, and radioactivity was measured using a Wizard 2480 gamma counter. Data are presented as percentages of injected activity per gram of tissue (%IA/g).

The nature of data set [2]: Octanol-water distribution coefficient (LogD). Type of data set: physicochemical. The following applies: n-octanol/PBS; n = 3; mean ± sd. On the procedure: Octanol-water distribution coefficient (LogD) was determined by adding 10 pmol of radiopeptide to an Eppendorf tube containing 500 µL of phosphate-buffered saline (PBS) and 500 µL of n-octanol. Each tube was vortexed for 2 min and centrifuged at 6000 g for 5 min. Three 100 µL fractions were collected from each phase, and their radioactivity was measured.

A short description of data set [3]: Complex stability of 68Ga-labeled peptides in PBS or EDTA solution in PBS (iTLC). It counts as physicochemical. The conditions noted are these: n = 3, mean ± sd; for remaining at 1 h, 1 µM: PBS buffer, pH 7.4, incubation at 37 °C for 1 h in PBS; for Stability in PBS with EDTA: incubation at 37 °C for 1 h in PBS with 1000-fold molar excess of EDTA, in % (unit assumed).

Details of data set [4]: method as in PMID 25684649. The following applies: same time point (2 h), 40 pmol; cited from earlier work.
Where [5] appears, read: blood, 50 pmol, 2 h p.i., i.v., read-out: Radionuclide concentration, Blood.
Where [6] appears, read: blood, Blockade (co-injection of NOTA-PEG2-RM26), 2 h, read-out: Radionuclide concentration, Blood.
The mark [7] stands for this setting: bone, 50 pmol, 2 h p.i., i.v., read-out: Radionuclide concentration, Bone.
Setting [8] is: bone, Blockade (co-injection of NOTA-PEG2-RM26), 2 h, read-out: Radionuclide concentration, Bone.
Setting [9] is: carcass, 50 pmol, 2 h p.i., i.v., read-out: Radionuclide quantity, Carcass.
Setting [10] is: carcass, Blockade (co-injection of NOTA-PEG2-RM26), 2 h, read-out: Radionuclide quantity, Carcass.
Where [11] appears, read: gastrointestinal tract, 50 pmol, 2 h p.i., i.v., read-out: Radionuclide quantity, Gastrointestinal tract.
[12] abbreviates: gastrointestinal tract, Blockade (co-injection of NOTA-PEG2-RM26), 2 h, read-out: Radionuclide quantity, Gastrointestinal tract.
[13] abbreviates: kidneys, 50 pmol, 2 h p.i., i.v., read-out: Radionuclide concentration, Kidneys.
Where [14] appears, read: kidneys, Blockade (co-injection of NOTA-PEG2-RM26), 2 h, read-out: Radionuclide concentration, Kidneys.
Setting [15] is: liver, 50 pmol, 2 h p.i., i.v., read-out: Radionuclide concentration, Liver.
The mark [16] stands for this setting: liver, Blockade (co-injection of NOTA-PEG2-RM26), 2 h, read-out: Radionuclide concentration, Liver.
Setting [17] is: lungs, 50 pmol, 2 h p.i., i.v., read-out: Radionuclide concentration, Lungs.
[18] abbreviates: lungs, Blockade (co-injection of NOTA-PEG2-RM26), 2 h, read-out: Radionuclide concentration, Lungs.
[19] abbreviates: muscle, 50 pmol, 2 h p.i., i.v., read-out: Radionuclide concentration, Muscle.
Where [20] appears, read: muscle, Blockade (co-injection of NOTA-PEG2-RM26), 2 h, read-out: Radionuclide concentration, Muscle.
Setting [21] is: pancreas, 50 pmol, 2 h p.i., i.v., read-out: Radionuclide concentration, Pancreas.
Setting [22] is: pancreas, Blockade (co-injection of NOTA-PEG2-RM26), 2 h, read-out: Radionuclide concentration, Pancreas.
Where [23] appears, read: small intestine, 50 pmol, 2 h p.i., i.v., read-out: Radionuclide concentration, Small Intestines.
Setting [24] is: small intestine, Blockade (co-injection of NOTA-PEG2-RM26), 2 h, read-out: Radionuclide concentration, Small Intestines.
The mark [25] stands for this setting: spleen, 50 pmol, 2 h p.i., i.v., read-out: Radionuclide concentration, Spleen.
[26] abbreviates: spleen, Blockade (co-injection of NOTA-PEG2-RM26), 2 h, read-out: Radionuclide concentration, Spleen.
[27] abbreviates: stomach, 50 pmol, 2 h p.i., i.v., read-out: Radionuclide concentration, Stomach.
Where [28] appears, read: stomach, Blockade (co-injection of NOTA-PEG2-RM26), 2 h, read-out: Radionuclide concentration, Stomach.
[29] abbreviates: total (sum of the measured activities), 50 pmol, 2 h p.i., i.v., sum of the measured activities, read-out: Radionuclide quantity, Total.
Where [30] appears, read: total, Blockade (co-injection of NOTA-PEG2-RM26), 2 h, read-out: Radionuclide quantity, Total.
[31] abbreviates: tumor (PC-3 xenograft), 50 pmol, 2 h p.i., i.v., PC-3 xenograft, read-out: Radionuclide concentration, Tumor.
Where [32] appears, read: tumor (PC-3 xenograft), Blockade (co-injection of NOTA-PEG2-RM26), 2 h, read-out: Radionuclide concentration, Tumor.

Like-named read-outs stand apart in the source and are kept apart here. Starred links: 1 amine or outer side, 2 acyl side, 3 side chain; linkers in the order of their positions; H or OH if unused. Non-standard residues stand in square brackets, D forms with d. Residues, ends and D or L forms follow the SMILES beside them. *: point of attachment. NOTA = O=C(O)CN1CCN(CC(=O)O)CCN(CC(=O)*)CC1; Sta = CC(C)C[C@H](N)[C@@H](O)CC(=O)O; X2 = O=C(COc1cccc(CN[*:1])c1)[*:2]; X3 = O=C(COc1ccccc1CN[*:1])[*:2]

A word on the logD: it is the decadic logarithm of the distribution of all forms, ionised or not, between an organic phase and buffer at a given pH. Low values mean a more hydrophilic compound, high ones a more lipophilic compound. In general, amount remaining refers to what is left of the initial amount, in per cent. A lower amount remaining goes with a greater loss. Take `CC(=O)N[C@@H](CCCCNC(=O)CN1CCN(CC(=O)O)CCN(CC(=O)O)CC1)C(=O)NCc1ccccc1OCC(=O)N[C@H](Cc1ccccc1)C(=O)N[C@@H](CCC(N)=O)C(=O)N[C@@H](Cc1c[nH]c2ccccc12)C(=O)N[C@@H](C)C(=O)N[C@H](C(=O)NCC(=O)N[C@@H](Cc1c[nH]cn1)C(=O)N[C@@H](CC(C)C)[C@@H](O)CC(=O)N[C@@H](CC(C)C)C(N)=O)C(C)C` [[^68Ga]Ga-NOTA-oMA-RM26, metal not drawn] (Ac-K(NOTA)[X3][dF]QWAVGH[Sta]L-NH2): the tissue uptake at 2 h in data set [1] (setting [5]) was determined as 0.47 ± 0.17 %ID/g; in data set [1] (setting [6]), 0.22 ± 0.08 %ID/g; in data set [1] (setting [7]), 0.34 ± 0.05 %ID/g; in data set [1] (setting [8]) it was 0.23 ± 0.03 %ID/g; in data set [1] (setting [13]), 6.3 ± 0.9 %ID/g; in data set [1] (setting [14]), 6.2 ± 1.3 %ID/g. Further, the tissue uptake at 2 h is 3.5 ± 0.5 %ID/g in data set [1] (setting [15]); 1.4 ± 0.4 %ID/g in data set [1] (setting [16]); 5.7 ± 1.5 %ID/g in data set [1] (setting [17]); 3.5 ± 2.2 %ID/g in data set [1] (setting [18]); 0.16 ± 0.05 %ID/g in data set [1] (setting [19]); 0.21 ± 0.09 %ID/g in data set [1] (setting [20]). Further, the tissue uptake at 2 h in data set [1] (setting [21]) stood at 21 ± 5.2 %ID/g; in data set [1] (setting [22]), 2.5 ± 0.6 %ID/g; in data set [1] (setting [23]), 3.4 ± 1.3 %ID/g; in data set [1] (setting [24]), 0.61 ± 0.13 %ID/g; in data set [1] (setting [25]), 1.2 ± 0.3 %ID/g; in data set [1] (setting [26]) it was 0.37 ± 0.08 %ID/g. The tissue uptake at 2 h in data set [1] (setting [27]) is 3.5 ± 0.7 %ID/g; in data set [1] (setting [28]), 1.1 ± 0.7 %ID/g; in data set [1] (setting [31]), 10.2 ± 2.7 %ID/g; in data set [1] (setting [32]), 1 ± 0.4 %ID/g. The tissue uptake dose at 2 h in data set [1] (setting [9]) was 2.9 ± 0.4 %ID; in data set [1] (setting [10]), 5.9 ± 2.7 %ID; in data set [1] (setting [11]) it was 6.5 ± 0.7 %ID; in data set [1] (setting [12]), 4.1 ± 2.1 %ID; in data set [1] (setting [29]), 19.8 ± 2.6 %ID; in data set [1] (setting [30]), 15.7 ± 2.9 %ID. The same molecule yielded a log distribution coefficient (logD) in data set [2] of -0.86 ± 0.02. This molecule also registered an amount remaining at 1 h, 1 µM in data set [3] of 91.7 ± 5.1%. For the same molecule, the “Stability in PBS with EDTA” value in data set [3] is listed as 91.3 ± 5.2.
Take `CC(C)C[C@H](NC(=O)C[C@H](O)[C@H](CC(C)C)NC(=O)[C@H](Cc1c[nH]cn1)NC(=O)CNC(=O)[C@@H](NC(=O)[C@H](C)NC(=O)[C@H](Cc1c[nH]c2ccccc12)NC(=O)[C@H](CCC(N)=O)NC(=O)[C@@H](Cc1ccccc1)NC(=O)COCCOCCNC(=O)CN1CCN(CC(=O)O)CCN(CC(=O)O)CC1)C(C)C)C(N)=O` [[^68Ga]Ga-NOTA-PEG2-RM26, metal not drawn]: in data set [4], the “accumulation in the kidneys” value is 1.9 ± 0.3 %IA/g; the “accumulation in the liver” value is recorded as 1 ± 0.1 %IA/g; the “accumulation in the lungs” value is given as 0.17 ± 0.03 %IA/g; the “tissue uptake, pancreas” value is 1.9 ± 0.1 %IA/g. Moreover, in data set [4], the “tissue uptake, small intestine” value was 0.6 ± 0.1 %IA/g; the “tissue uptake, stomach” value is recorded as 1.4 ± 0.2 %IA/g; the “tissue uptake, tumor” value was 5.4 ± 1 %IA/g. This molecule also yielded a logD in data set [2] of -1.43 ± 0.01.
Take `CC(=O)N[C@@H](CCCCNC(=O)CN1CCN(CC(=O)O)CCN(CC(=O)O)CC1)C(=O)NCc1cccc(OCC(=O)N[C@H](Cc2ccccc2)C(=O)N[C@@H](CCC(N)=O)C(=O)N[C@@H](Cc2c[nH]c3ccccc23)C(=O)N[C@@H](C)C(=O)N[C@H](C(=O)NCC(=O)N[C@@H](Cc2c[nH]cn2)C(=O)N[C@@H](CC(C)C)[C@@H](O)CC(=O)N[C@@H](CC(C)C)C(N)=O)C(C)C)c1` [[^68Ga]Ga-NOTA-mMA-RM26, metal not drawn] (Ac-K(NOTA)[X2][dF]QWAVGH[Sta]L-NH2): the tissue uptake at 2 h was found to be 0.39 ± 0.08 %ID/g in data set [1] (setting [5]); 0.42 ± 0.21 %ID/g in data set [1] (setting [6]); 0.28 ± 0.06 %ID/g in data set [1] (setting [7]); 0.25 ± 0.03 %ID/g in data set [1] (setting [8]); 8.4 ± 1.4 %ID/g in data set [1] (setting [13]); 7.6 ± 0.7 %ID/g in data set [1] (setting [14]). Moreover, the tissue uptake at 2 h came out at 3.7 ± 1.4 %ID/g in data set [1] (setting [15]); 2.2 ± 0.5 %ID/g in data set [1] (setting [16]); 7.1 ± 4.2 %ID/g in data set [1] (setting [17]); 3.4 ± 0.5 %ID/g in data set [1] (setting [18]); 0.12 ± 0.02 %ID/g in data set [1] (setting [19]); 0.12 ± 0.05 %ID/g in data set [1] (setting [20]). The tissue uptake at 2 h is 10.5 ± 3.8 %ID/g in data set [1] (setting [21]); 1.7 ± 0.9 %ID/g in data set [1] (setting [22]); 1.7 ± 0.7 %ID/g in data set [1] (setting [23]); 0.91 ± 0.48 %ID/g in data set [1] (setting [24]); 1.1 ± 0.4 %ID/g in data set [1] (setting [25]); 1.1 ± 0.8 %ID/g in data set [1] (setting [26]). For the same molecule, the tissue uptake at 2 h in data set [1] (setting [27]) was 2.5 ± 0.6 %ID/g; in data set [1] (setting [28]), 0.77 ± 0.51 %ID/g; in data set [1] (setting [31]) it was 12.3 ± 2.8 %ID/g; in data set [1] (setting [32]), 1.8 ± 0.2 %ID/g. Besides, the tissue uptake dose at 2 h was 2.8 ± 0.4 %ID in data set [1] (setting [9]); 4.6 ± 0.7 %ID in data set [1] (setting [10]); 4 ± 0.4 %ID in data set [1] (setting [11]); 3.1 ± 1.7 %ID in data set [1] (setting [12]); 16.5 ± 3.1 %ID in data set [1] (setting [29]); 12.6 ± 2 %ID in data set [1] (setting [30]). Also, the logD in data set [2] was -1.21 ± 0.03. Further, the fraction remaining at 1 h, 1 µM in data set [3] is 92.8 ± 3.3%. Besides, in data set [3], the “Stability in PBS with EDTA” value is listed as 90.6 ± 4.1.
